The test system of this test is HIV-1 (H9IIIB strain). The experiment in a line: Cell-based HIV infection assay using a reporter (Cell-Based), MT4-GFP cells. The following applies: Human immunodeficiency virus 1, MT4-GFP cells infected with HIV-1 H9IIIB; 50% normal human serum; mean of at least two independent experiments; read-out: Cell-based IP. An outline of the steps:
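IC50 from 4-parameter dose-response of % viral growth inhibition, using the 48 h/24 h infected-cell ratio scaled between DMSO and a protease/integrase/NNRTI triple-drug control. Assay used MT4 cells with HIV-LTR-GFP reporter, pre-infected 24 h with HIV-1 H9IIIB, in 50% normal human serum.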

Each structure is given as a SMILES string.

For `COC(=O)N[C@H](C(=O)Nc1cccc(F)c1CC[C@H]1CNC[C@H](C)N1S(=O)(=O)c1ccccc1)[C@@H](Cc1ccc(F)cc1)c1ccc(Cl)cc1` [Example 194, (βS)-4-chloro-β-(4-fluorobenzyl)-N-(3-fluoro-2-{2-[(2S,6S)-6-methyl-1-(phenylsulfonyl)piperazin-2-yl]ethyl}phenyl)-Nα-(methoxycarbonyl)-L-phenylalaninamide], the IC50 is 34 nM.
Then `C[C@@H]1CNC[C@H](CCc2c(F)cccc2NC(=O)[C@@H](N)[C@@H](Cc2ccc(F)cc2)c2ccc(Cl)cc2)N1S(=O)(=O)c1ccccc1` [Example 195, (βS)-4-chloro-β-(4-fluorobenzyl)-N-(3-fluoro-2-{2-[(2S,6R)-6-methyl-1-(phenylsulfonyl)piperazin-2-yl]ethyl}phenyl)-L-phenylalaninamide], with 77 nM.
In the case of `COC(=O)N[C@H](C(=O)Nc1cccc(F)c1CC[C@H]1CNC[C@@H](C)N1S(=O)(=O)c1ccccc1)[C@@H](Cc1ccc(F)cc1)c1ccc(Cl)cc1` [Example 196, (βS)-4-chloro-β-(4-fluorobenzyl)-N-(3-fluoro-2-{2-[(2S,6R)-6-methyl-1-(phenylsulfonyl)piperazin-2-yl]ethyl}phenyl)-Nα-(methoxycarbonyl)-L-phenylalaninamide], the IC50 worked out at 49 nM.
Consider `C[C@H]1CNC[C@H](CCc2c(F)cncc2NC(=O)[C@@H](N)[C@@H](c2ccc(F)cc2)c2cc(F)cc(F)c2)N1S(=O)(=O)C1CC1` [Example 197, (BS)-N-(4-{2-[(2S,6S)-1-(cyclopropylsulfonyl)-6-methylpiperazin-2-yl]ethyl}-5-fluoropyridin-3-yl)-β-(3,5-difluorophenyl)-4-fluoro-L-phenylalaninamide], for which the IC50 stood at 18 nM.
With `C[C@H]1CNC[C@H](CCc2c(F)cccc2NC(=O)[C@@H](N)[C@@H](c2ccc(Cl)cc2)c2cc(F)cc(F)c2)N1S(C)(=O)=O` [Example 198, (βS)-4-chloro-β-(3,5-difluorophenyl)-N-(3-fluoro-2-{2-[(2S,6S)-6-methyl-1-(methylsulfonyl)piperazin-2-yl]ethyl}phenyl)-L-phenylalaninamide] the figure was 21 nM; with `C[C@H]1CNC[C@H](CCc2c(F)cccc2NC(=O)[C@@H](N)[C@@H](c2ccc(Cl)cc2)c2cc(F)cc(F)c2)N1S(=O)(=O)C1CC1` [Example 199, (βS)-4-chloro-N-(2-{2-[(2S,6S)-1-(cyclopropylsulfonyl)-6-methylpiperazin-2-yl]ethyl}-3-fluorophenyl)-β-(3,5-difluorophenyl)-L-phenylalaninamide], 20 nM; with `COC(=O)N[C@H](C(=O)Nc1cccc(F)c1CC[C@H]1CNC[C@H](C)N1S(C)(=O)=O)[C@@H](c1ccc(Cl)cc1)c1cc(F)cc(F)c1` [Example 200, (βS)-4-chloro-β-(3,5-difluorophenyl)-N-(3-fluoro-2-{2-[(2S,6S)-6-methyl-1-(methylsulfonyl)piperazin-2-yl]ethyl}phenyl)-Nα-(methoxycarbonyl)-L-phenylalaninamide], 16 nM.
Then `COC(=O)N[C@H](C(=O)Nc1cccc(F)c1CC[C@H]1CNC[C@H](C)N1S(=O)(=O)C1CC1)[C@@H](c1ccc(Cl)cc1)c1cc(F)cc(F)c1` [Example 201, (βS)-4-chloro-N-(2-{2-[(2S,6S)-1-(cyclopropylsulfonyl)-6-methylpiperazin-2-yl]ethyl}-3-fluorophenyl)-β-(3,5-difluorophenyl)-Nα-(methoxycarbonyl)-L-phenylalaninamide], with 16 nM; and `C[C@H]1CNC[C@H](CCc2c(F)cccc2NC(=O)[C@@H](N)[C@@H](Cc2ccc(F)cc2)c2ccc(Cl)cc2)N1S(C)(=O)=O` [Example 202, (βS)-4-chloro-β-(4-fluorobenzyl)-N-(3-fluoro-2-{2-[(2S,6S)-6-methyl-1-(methylsulfonyl)piperazin-2-yl]ethyl}phenyl)-L-phenylalaninamide], with 620 nM.
Then `C[C@@H]1CNC[C@H](CCc2c(F)cccc2NC(=O)[C@@H](N)[C@H](c2cccc(F)c2)c2cccc(Cl)c2)N1S(=O)(=O)C1CC1` [Example 203, (βR)-3-chloro-N-(2-{2-[(2S,6R)-1-(cyclopropylsulfonyl)-6-methylpiperazin-2-yl]ethyl}-3-fluorophenyl)-β-(3-fluorophenyl)-L-phenylalaninamide], with 620 nM; and `C[C@@H]1CNC[C@H](CCc2c(F)cccc2NC(=O)[C@@H](N)[C@@H](c2ccc(Cl)cc2)c2cccc(F)c2)N1S(=O)(=O)C1CC1` [Example 204, (βS)-4-chloro-N-(2-{2-[(2S,6R)-1-(cyclopropylsulfonyl)-6-methylpiperazin-2-yl]ethyl}-3-fluorophenyl)-β-(3-fluorophenyl)-L-phenylalaninamide], with 80 nM; and `CS(=O)(=O)N1[C@@H](CCc2c(F)cccc2NC(=O)[C@@H](N)[C@@H](c2ccc(F)cc2)c2cc(F)cc(F)c2)CNC[C@@H]1C1CC1` [Example 205, (βS)-N-(2-{2-[(2S,6S)-6-cyclopropyl-1-(methylsulfonyl)piperazin-2-yl]ethyl}-3-fluorophenyl)-β-(3,5-difluorophenyl)-4-fluoro-L-phenylalaninamide], with 22 nM.
On to `CC(C)[C@H](c1cccc(Cl)c1)[C@H](N)C(=O)Nc1cccc(F)c1CC[C@H]1CNC[C@@H](C)N1S(=O)(=O)c1ccccc1` [Example 206, (βR)-3-chloro-N-(3-fluoro-2-{2-[(2S,6R)-6-methyl-1-(phenylsulfonyl)piperazin-2-yl]ethyl}phenyl)-β-(1-methylethyl)-L-phenylalaninamide], for which the IC50 worked out at 480 nM.
For the molecule `CC(C)[C@H](c1cccc(Cl)c1)[C@H](N)C(=O)Nc1cccc(F)c1CC[C@H]1CNC[C@H](C)N1S(=O)(=O)c1ccccc1` [Example 207, (βR)-3-chloro-N-(3-fluoro-2-{2-[(2S,6S)-6-methyl-1-(phenylsulfonyl)piperazin-2-yl]ethyl}phenyl)-β-(1-methylethyl)-L-phenylalaninamide], the IC50 was determined as 760 nM.
In the case of `COC(=O)N[C@H](C(=O)Nc1cccc(F)c1CC[C@H]1CNC[C@@H](C)N1S(=O)(=O)c1ccccc1)[C@@H](c1cccc(Cl)c1)C(C)C` [Example 208, (βR)-3-chloro-N-(3-fluoro-2-{2-[(2S,6R)-6-methyl-1-(phenylsulfonyl)piperazin-2-yl]ethyl}phenyl)-Nα-(methoxycarbonyl)-β-(1-methylethyl)-L-phenylalaninamide], the IC50 worked out at 42 nM.
As for `COC(=O)N[C@H](C(=O)Nc1cccc(F)c1CC[C@H]1CNC[C@H](C)N1S(=O)(=O)c1ccccc1)[C@@H](c1cccc(Cl)c1)C(C)C` [Example 209, (βR)-3-chloro-N-(3-fluoro-2-{2-[(2S,6S)-6-methyl-1-(phenylsulfonyl)piperazin-2-yl]ethyl}phenyl)-Nα-(methoxycarbonyl)-β-(1-methylethyl)-L-phenylalaninamide], the IC50 was determined as 77 nM.
With `COC(=O)N[C@H](C(=O)Nc1cncc(F)c1CC[C@H]1CNC[C@H](C)N1S(=O)(=O)C1CC1)[C@@H](c1ccc(F)cc1)c1cc(F)cc(F)c1` [Example 210, (βS)-N-(4-{2-[(2S,6S)-1-(cyclopropylsulfonyl)-6-methylpiperazin-2-yl]ethyl}-5-fluoropyridin-3-yl)-β-(3,5-difluorophenyl)-4-fluoro-Nα-(methoxycarbonyl)-L-phenylalaninamide] the figure was 13 nM.
In the case of `COC(=O)N[C@H](C(=O)Nc1cncc(F)c1CC[C@H]1CNC[C@@H](C)N1S(=O)(=O)C1CC1)[C@@H](c1ccc(F)cc1)c1cc(F)cc(F)c1` [Example 211, (βS)-N-(4-{2-[(2S,6R)-1-(cyclopropylsulfonyl)-6-methylpiperazin-2-yl]ethyl}-5-fluoropyridin-3-yl)-β-(3,5-difluorophenyl)-4-fluoro-Nα-(methoxycarbonyl)-L-phenylalaninamide], the IC50 amounted to 16 nM.
As for `COC(=O)N[C@H](C(=O)Nc1cccc(F)c1CC[C@H]1CNC[C@H](C)N1S(=O)(=O)C1CC1)[C@@H](c1ccc(F)cc1)c1cc(F)cc(F)c1` [Example 212, (βS)-N-(2-{2-[(2S,6S)-1-(cyclopropylsulfonyl)-6-methylpiperazin-2-yl]ethyl}-3-fluorophenyl)-β-(3,5-difluorophenyl)-4-fluoro-Nα-(methoxycarbonyl)-L-phenylalaninamide], the IC50 is 13 nM.
As for `C[C@H]1CNC[C@H](CCc2c(F)cncc2NC(=O)[C@@H](N)[C@@H](c2ccc(Cl)cc2)c2cccc(F)c2)N1S(C)(=O)=O` [Example 213, (βS)-4-chloro-N-(5-fluoro-4-{2-[(2S,6S)-6-methyl-1-(methylsulfonyl)piperazin-2-yl]ethyl}pyridin-3-yl)-β-(3-fluorophenyl)-L-phenylalaninamide], the IC50 came out at 29 nM.
As for `C[C@H]1CNC[C@H](CCc2c(F)cccc2NC(=O)[C@@H](N)[C@@H](c2ccc(F)cc2)c2cc(F)cc(F)c2)N1S(=O)(=O)c1ccc(OC(F)(F)F)cc1` [Example 214, (βS)-β-(3,5-difluorophenyl)-4-fluoro-N-(3-fluoro-2-{2-[(2S,6S)-6-methyl-1-{[4-(trifluoromethoxy)phenyl]sulfonyl}piperazin-2-yl]ethyl}phenyl)-L-phenylalaninamide], the IC50 was determined as 44 nM.
For the molecule `CC(C)[C@H](c1cccc(Cl)c1)[C@H](N)C(=O)Nc1cccc(F)c1CC[C@H]1CNC[C@H](C)N1S(=O)(=O)C1CC1` [Example 215, (βR)-3-chloro-N-(2-{2-[(2S,6S)-1-(cyclopropylsulfonyl)-6-methylpiperazin-2-yl]ethyl}-3-fluorophenyl)-β-(1-methylethyl)-L-phenylalaninamide], the IC50 stood at 2500 nM.
Then `COC(=O)N[C@H](C(=O)Nc1cccc(F)c1CC[C@H]1CNC[C@H](C)N1S(=O)(=O)C1CC1)[C@@H](c1cccc(Cl)c1)C(C)C` [Example 216, (βR)-3-chloro-N-(2-{2-[(2S,6S)-1-(cyclopropylsulfonyl)-6-methylpiperazin-2-yl]ethyl}-3-fluorophenyl)-Nα-(methoxycarbonyl)-β-(1-methylethyl)-L-phenylalaninamide], with 1300 nM.

Values taken from patent US9840478B2 (MERCK SHARP & DOHME CORP., priority 2013, dated 2017).
